In patent US20250129067A1 (Progentos Therapeutics, Inc., priority 2021, published 2025):
pIC50: −log10 of the molar value.

Assays:
[1] = target: PDGFRα (Homo sapiens (Human), UniProt P16234); experiment: PDGFRα kinase enzyme assay (Promega PDGFRα Kinase Enzyme System, ADP-Glo); format: biochemical; conditions: 11-point dose response, 10,000 nM to 0.169 nM; 150 uM ATP; BLQ = below limit of quantitation; read-out: IC50 Values on PDGFRα Kinase Inhibition, IC50
Method: The PDGFRα enzyme assays were conducted per the manufacturer's directions (Promega PDGFRα Kinase Enzyme System and ADP Glo Assay Cat #V8011). […] 20 ng of purified PDGFRα protein was added to the test article. […] ADP-Glo was added to halt the kinase reaction and deplete the remaining ATP. Kinase detection reagent, containing luciferase and luciferin, was used to convert the ADP signal into luminescence. Luminescence was measured using a Molecular Devices Spectramax ID5 and compared to a standard curve to determine kinase activity. IC50s were calculated using Prism 9, Graphpad software.

[2] = test system: Oligodendrocyte progenitor cells (OPCs); experiment: In vitro OPC differentiation assay, GPR17 expression (immunocytochemistry); conditions: 72 hours, fold change over vehicle; for GPR17 Fold Induction (Over Vehicle; 3 μM): 3 μM (10× concentration, final 0.3 μM); for GPR17 Fold Induction (Over Vehicle; 5 μM): 5 μM (10× concentration, final 0.5 μM)

PDGFRα, sequence (P16234 24-1089): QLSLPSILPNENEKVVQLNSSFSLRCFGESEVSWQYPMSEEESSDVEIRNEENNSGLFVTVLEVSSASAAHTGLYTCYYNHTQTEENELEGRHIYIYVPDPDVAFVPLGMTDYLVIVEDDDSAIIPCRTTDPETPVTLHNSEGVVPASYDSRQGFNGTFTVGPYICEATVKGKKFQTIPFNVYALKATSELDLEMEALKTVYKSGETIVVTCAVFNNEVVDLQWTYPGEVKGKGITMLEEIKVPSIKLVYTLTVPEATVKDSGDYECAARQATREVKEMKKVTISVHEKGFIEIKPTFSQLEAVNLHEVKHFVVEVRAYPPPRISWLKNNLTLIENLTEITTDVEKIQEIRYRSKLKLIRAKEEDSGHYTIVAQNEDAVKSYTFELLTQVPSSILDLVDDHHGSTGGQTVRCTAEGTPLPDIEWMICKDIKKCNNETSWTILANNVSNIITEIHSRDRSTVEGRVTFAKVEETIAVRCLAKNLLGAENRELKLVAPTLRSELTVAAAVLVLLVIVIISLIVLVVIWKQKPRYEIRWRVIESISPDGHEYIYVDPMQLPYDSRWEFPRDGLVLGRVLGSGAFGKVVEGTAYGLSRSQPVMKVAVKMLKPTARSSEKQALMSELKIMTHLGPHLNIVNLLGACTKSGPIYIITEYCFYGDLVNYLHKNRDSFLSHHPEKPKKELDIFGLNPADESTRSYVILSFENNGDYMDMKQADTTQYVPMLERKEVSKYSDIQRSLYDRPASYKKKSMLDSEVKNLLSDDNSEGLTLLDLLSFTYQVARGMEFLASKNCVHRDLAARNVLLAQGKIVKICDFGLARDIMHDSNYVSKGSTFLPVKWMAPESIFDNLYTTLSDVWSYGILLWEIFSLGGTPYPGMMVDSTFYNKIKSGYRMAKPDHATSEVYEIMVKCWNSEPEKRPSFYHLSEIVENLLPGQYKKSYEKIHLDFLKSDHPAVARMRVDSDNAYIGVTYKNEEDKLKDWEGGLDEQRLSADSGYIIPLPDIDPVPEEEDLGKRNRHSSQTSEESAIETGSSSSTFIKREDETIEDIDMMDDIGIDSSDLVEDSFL

pIC50 [1] | GPR17 Fold Induction (Over Vehicle; 3 μM) [2] | GPR17 Fold Induction (Over Vehicle; 5 μM) [2] | SMILES
5.62 | 1.27 |  | Cn1cc(-c2ccc3c(N4CCCN(C(=O)OC(C)(C)C)CC4)cnn3c2)cn1 [Compound 40, tert-butyl 4-(6-(1-methyl-1H-pyrazol-4-yl)pyrazolo[1,5-a]pyridin-3-yl)-1,4-diazepane-1-carboxylate]
5.08 | 10.21 | 4.64 | Cn1cc(-c2ccc3c(N4CCN(c5ncc(CN6CCCCC6)cn5)CC4)cnn3c2)cn1 [Compound 42, 6-(1-methyl-1H-pyrazol-4-yl)-3-{4-[5-(piperidin-1-ylmethyl)pyrimidin-2-yl]piperazin-1-yl}pyrazolo[1,5-a]pyridine]
6.41 | 12.48 | 6.92 | CN(C)CCn1cc(-c2ccc3c(N4CCN(c5ncc(Cc6ccccc6)cn5)CC4)cnn3c2)cn1 [Compound 43, 2-(4-{3-[4-(5-benzylpyrimidin-2-yl)piperazin-1-yl]pyrazolo[1,5-a]pyridin-6-yl}-1H-pyrazol-1-yl)-N,N-dimethylethanamine]
5.86 | 1.39 |  | Cn1cc(-c2ccc3c(N4CCN(C(=O)OC(C)(C)C)CC4)cnn3n2)cn1 [Compound 45, Tert-butyl 4-[6-(1-methyl-1H-pyrazol-4-yl)pyrazolo[1,5-b]pyridazin-3-yl]piperazine-1-carboxylate]
5.40 | 1.13 |  | CC(C)NC(=O)N1CCN(c2cnn3cc(-c4cnn(C)c4)ccc23)CC1 [Compound 47, N-isopropyl 4-[6-(1-methyl-1H-pyrazol-4-yl)pyrazolo[1,5-a]pyridin-3-yl]piperazine-1-carboxamide]
< 5.00 | 2.75 |  | Cn1cc(-c2ccc3c(N4CC5(CN(c6ncc(Cc7ccccc7)cn6)C5)C4)cnn3c2)cn1 [Compound 48, 3-[6-(5-benzylpyrimidin-2-yl)-2,6-diazaspiro[3.3]hept-2-yl]-6-(1-methyl-pyrazol-4-yl)pyrazolo[1,5-a]pyridine]
5.84 | 4.54 |  | Cn1cc(-c2ccc3c(N4CCN(C5=NCC(c6ccccc6)O5)CC4)cnn3c2)cn1 (stereo not shown) [Compound 56, 6-(1-Methyl-1H-pyrazol-4-yl)-3-[4-(5-phenyl-4,5-dihydro-1,3-oxazol-2-yl)piperazin-1-yl]pyrazolo[1,5-a]pyridine]
5.25 | 5.28 |  | C[C@@H](OC(=O)N1CCN(c2cnn3cc(-c4cnn(C)c4)ccc23)CC1)C1CCCCC1 [Compound 57, (1R)-1-cyclohexylethyl 4-[6-(1-methyl-1H-pyrazol-4-yl)pyrazolo[1,5-a]pyridin-3-yl]piperazine-1-carboxylate]
5.30 | 2.92 |  | Cn1cc(-c2ccc3c(C4=CCN(c5ncc(Cc6ccccc6)cn5)CC4)cnn3c2)cn1 [Compound 60, 3-[1-(5-benzylpyrimidin-2-yl)-1,2,3,6-tetrahydropyridin-4-yl]-6-(1-methyl-1H-pyrazol-4-yl)pyrazolo[1,5-a]pyridine]
6.38 | 6.53 |  | Cn1cc(-c2ccc3c(N4CCN(c5ncc(CC6CCCCC6)cn5)CC4)cnn3c2)cn1 [Compound 62, 3-{4-[5-(cyclohexylmethyl)pyrimidin-2-yl]piperazin-1-yl}-6-(1-methyl-1H-pyrazol-4-yl)pyrazolo[1,5-a]pyridine]
5.91 | 4.35 |  | Cn1cc(-c2ccc3c(N4CCN(c5ncc(CC6CCOCC6)cn5)CC4)cnn3c2)cn1 [Compound 68, 6-(1-methyl-1H-pyrazol-4-yl)-3-{4-[5-(tetrahydro-2H-pyran-4-ylmethyl)pyrimidin-2-yl]piperazin-1-yl}pyrazolo[1,5-a]pyridine]
5.17 | 3.72 |  | Cn1cc(-c2ccc3c(N4CCN(c5cnc(Cc6ccccc6)nc5)CC4)cnn3c2)cn1 [Compound 70, 3-[4-(2-benzylpyrimidin-5-yl)piperazin-1-yl]-6-(1-methyl-1H-pyrazol-4-yl)pyrazolo[1,5-a]pyridine]
 | 1.43 |  | Cn1cc(-c2ccn3c(N4CCN(C(=O)OC(C)(C)C)CC4)cnc3n2)cn1 [Compound 87]
 | 1.57 |  | CN(CCCN(C)c1cnn2cc(-c3cnn(C)c3)ccc12)c1ncc(Cc2ccccc2)cn1 [Compound 130]
 | 9.23 |  | Cn1cc(-c2ccc3c(N4CCN(C(=O)OCc5ccc(Cl)cc5)CC4)cnn3c2)cn1 [Compound 198, 4-chlorobenzyl 4-(6-(1-methyl-1H-pyrazol-4-yl)pyrazolo[1,5-a]pyridin-3-yl)piperazine-1-carboxylate]
 | 1.94 |  | Cn1cc(-c2ccc3c(N4CCN(Cc5ccc(Cl)cc5)CC4)cnn3c2)cn1 [Compound 202, 3-(4-(4-chlorobenzyl)piperazin-1-yl)-6-(1-methyl-1H-pyrazol-4-yl)pyrazolo[1,5-a]pyridine]
 | 1.15 |  | Cn1cc(-c2ccc3c(CCc4ncc(Cc5ccccc5)cn4)cnn3c2)cn1 [Compound 305, 3-(2-(5-benzylpyrimidin-2-yl)ethyl)-6-(1-methyl-1H-pyrazol-4-yl)pyrazolo[1,5-a]pyridine]

Second part, the molecule before the results:

SMILES | pIC50 [1] | GPR17 Fold Induction (Over Vehicle; 3 μM) [2] | GPR17 Fold Induction (Over Vehicle; 5 μM) [2]
Cn1cc(-c2ccn3ncc(N4CCN(c5ncc(Cc6ccccc6)cn5)CC4)c3c2)cn1 [Compound 4, 3-[4-(5-benzylpyrimidin-2-yl)piperazin-1-yl]-5-(1-methyl-1H-pyrazol-4-yl)pyrazolo[1,5a]pyridine] | < 5.00 |  | 
Cn1cc(-c2ccc3c(N4CCN(c5ncc(Cc6ccccc6)cn5)CC4)nnn3c2)cn1 [Compound 9, 3-[4-(5-benzylpyrimidin-2-yl)piperazin-1-yl]-6-(1-methyl-1H-pyrazol-4-yl)[1,2,3]triazolo[1,5-a]pyridine] | < 5.00 | 1.88 | 
Cn1cc(-c2ccc3c(N4CCNCC4)cnn3c2)cn1 [Compound 12, 1-[6-(1-methylpyrazol-4-yl)pyrazolo[1,5-a]pyridin-3-yl]piperazine] | < 5.00 | 0.68 | 
Cn1cc(-c2ccc3c(N4CCN(C(=O)OCC5CCOCC5)CC4)cnn3c2)cn1 [Compound 14, Tetrahydro-2H-pyran-4-ylmethyl 4-[6-(1-methyl-1H-pyrazol-4-yl)pyrazolo[1,5-a]pyridin-3-yl]piperazine-1-carboxylate] | 5.37 | 1.11 | 
CN1CCC(OC(=O)N2CCN(c3cnn4cc(-c5cnn(C)c5)ccc34)CC2)CC1 [Compound 19, 1-methylpiperidin-4-yl 4-[6-(1-methyl-1H-pyrazol-4-yl)pyrazolo[1,5-a]pyridin-3-yl]piperazine-1-carboxylate] | < 5.00 | 0.83 | 
CN1CCC(COC(=O)N2CCN(c3cnn4cc(-c5cnn(C)c5)ccc34)CC2)CC1 [Compound 20, (1-methylpiperidin-4-yl)methyl 4-[6-(1-methyl-1H-pyrazol-4-yl)pyrazolo[1,5-a]pyridin-3-yl]piperazine-1-carboxylate] | < 5.00 | 0.58 | 
Cn1cc(-c2cn3ncc(N4CCN(c5ncc(Cc6ccccc6)cn5)CC4)c3cn2)cn1 [Compound 22, 3-[4-(5-Benzylpyrimidin-2-yl)piperazin-1-yl]-6-(1-methyl-1H-pyrazol-4-yl)pyrazolo[1,5-a]pyrazine] | < 5.00 | 6.13 | 3.46
Cn1cc(-c2ccn3c(N4CCN(c5ncc(Cc6ccccc6)cn5)CC4)nnc3c2)cn1 [Compound 24, 3-[4-(5-benzylpyrimidin-2-yl)piperazin-1-yl]-7-(1-methyl-1H-pyrazol-4-yl)[1,2,4]triazolo[4,3-a]pyridine] | < 5.00 | 0.54 | 
Cn1cc(-c2ccc3c(N4CCN(c5ncc(C(=O)c6ccc(F)cc6)cn5)CC4)cnn3c2)cn1 [Compound 25, (4-fluorophenyl)(2-{4-[6-(1-methyl-1H-pyrazol-4-yl)pyrazolo[1,5-a]pyridin-3-yl]piperazin-1-yl}pyrimidin-5-yl)methanone] | < 5.00 | 1.07 | 
Cn1cc(-c2ccc3c(N4CCN(C(=O)OC(C)(C)C)CCC4=O)cnn3c2)cn1 [Compound 27, tert-butyl 4-[6-(1-methyl-1H-pyrazol-4-yl)pyrazolo[1,5-a]pyridine-3-yl]-5-oxo-1,4-diazepane-1-carboxylate] | < 5.00 | 0.96 | 
Cn1cc(-c2ccc3c(N4CCN(C(=O)OC(C)(C)C)CC4=O)cnn3c2)cn1 [Compound 28, tert-butyl 4-[6-(1-methyl-1H-pyrazol-4-yl)pyrazolo[1,5-a]pyridine-3-yl]-3-oxopiperazine-1-carboxylate] | < 5.00 | 1.84 | 
CC(C)OC(=O)N1CCN(c2cnn3cc(-c4cnn(C)c4)ccc23)CC1 [Compound 31, isopropyl 4-[6-(1-methyl-1H-pyrazol-4-yl)pyrazolo[1,5-a]pyridin-3-yl]piperazine-1-carboxylate] | 6.61 | 9.76 | 6.22
Cn1cc(-c2ccc3c(N4CCN(C(=O)OC5CCOCC5)CC4)cnn3c2)cn1 [Compound 39, tetrahydro-2H-pyran-4-yl 4-[6-(1-methyl-1H-pyrazol-4-yl)pyrazolo[1,5-a]pyridin-3-yl]piperazine-1-carboxylate] | < 5.00 | 1.78 | 
